{"source": "patent US20260083865A1", "about": "“PROSTATE SPECIFIC MEMBRANE ANTIGEN (PSMA) LIGANDS AND USE THEREOF” (priority 2022, published 2026)", "key": {"[1]": {"target": "T1, Fc-fusion protein of human PSMA (hPSMA-Fc) (Homo sapiens, UniProt Q04609)", "T1 construct": "purchased Acro Biosystems PSA-H5264", "T1 sequence (Q04609 44-750 limits assumed)": "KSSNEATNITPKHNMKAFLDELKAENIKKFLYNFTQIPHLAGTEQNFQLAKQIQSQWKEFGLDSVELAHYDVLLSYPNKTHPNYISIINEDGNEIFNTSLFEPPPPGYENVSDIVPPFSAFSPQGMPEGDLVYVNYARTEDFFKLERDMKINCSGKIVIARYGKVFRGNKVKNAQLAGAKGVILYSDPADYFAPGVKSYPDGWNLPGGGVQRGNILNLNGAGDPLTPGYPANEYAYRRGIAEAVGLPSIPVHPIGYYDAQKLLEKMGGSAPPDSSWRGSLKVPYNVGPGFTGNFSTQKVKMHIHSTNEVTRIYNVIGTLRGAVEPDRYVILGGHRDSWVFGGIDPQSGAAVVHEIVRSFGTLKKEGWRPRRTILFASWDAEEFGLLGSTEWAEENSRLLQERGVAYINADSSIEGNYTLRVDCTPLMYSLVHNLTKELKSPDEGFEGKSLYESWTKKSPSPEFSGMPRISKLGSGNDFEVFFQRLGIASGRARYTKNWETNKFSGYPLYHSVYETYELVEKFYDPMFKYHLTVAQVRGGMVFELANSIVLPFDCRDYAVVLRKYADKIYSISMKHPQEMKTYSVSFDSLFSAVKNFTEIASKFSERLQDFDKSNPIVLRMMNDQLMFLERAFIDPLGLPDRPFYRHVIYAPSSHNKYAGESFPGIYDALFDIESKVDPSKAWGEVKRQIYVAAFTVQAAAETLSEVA", "assay": "Surface plasmon resonance assay (Biacore T200, single cycle kinetic)", "format": "binding", "conditions": "SPR, hPSMA-Fc, single cycle kinetic, 25° C.; category; read-out: pKD CAT (converted)", "how_it_was_run": "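hPSMA-Fc was captured (~1000 RU) on an Fc-binding-peptide CM5 chip, and compounds were run in single cycle kinetic mode at 25° C in HBST with 0.1% DMSO. Double-blank-corrected sensorgrams were fitted to a 1:1 Langmuir model to give KD, reported as pKD.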"}, "[2]": {"target": "T2, PSMA-expressing C4-2 cells (Homo sapiens, UniProt Q04609)", "T2 construct": "PSMA-expressing C4-2 cells (ATCC, Cat. No. CRL-3314) were cultured in RPMI-1640; host or cells: C4-2 cells", "T2 sequence (Q04609 whole entry)": "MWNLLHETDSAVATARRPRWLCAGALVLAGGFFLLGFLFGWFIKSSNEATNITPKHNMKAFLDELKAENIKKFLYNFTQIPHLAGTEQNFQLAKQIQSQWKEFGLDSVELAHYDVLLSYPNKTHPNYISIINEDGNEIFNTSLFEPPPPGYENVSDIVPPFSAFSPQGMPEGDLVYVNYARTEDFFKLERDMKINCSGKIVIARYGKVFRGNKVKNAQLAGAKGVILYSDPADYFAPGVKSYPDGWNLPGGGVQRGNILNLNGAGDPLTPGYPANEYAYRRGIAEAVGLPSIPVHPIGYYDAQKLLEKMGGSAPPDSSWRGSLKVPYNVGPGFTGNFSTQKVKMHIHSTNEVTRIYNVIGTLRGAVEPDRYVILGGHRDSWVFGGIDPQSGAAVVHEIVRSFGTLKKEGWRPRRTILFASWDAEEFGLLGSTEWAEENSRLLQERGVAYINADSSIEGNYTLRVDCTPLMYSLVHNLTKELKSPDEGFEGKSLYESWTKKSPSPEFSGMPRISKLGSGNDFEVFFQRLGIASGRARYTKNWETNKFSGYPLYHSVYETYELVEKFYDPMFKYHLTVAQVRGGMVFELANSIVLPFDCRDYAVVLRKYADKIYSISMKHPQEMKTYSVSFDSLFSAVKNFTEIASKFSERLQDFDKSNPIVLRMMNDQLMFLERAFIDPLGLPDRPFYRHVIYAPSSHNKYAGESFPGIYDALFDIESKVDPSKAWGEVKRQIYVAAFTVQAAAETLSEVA", "assay": "FACS binding assay (competition with 50 nM PSM-0183)", "conditions": "FACS binding, C4-2 cells, competition with 50 nM PSM-0183; category; read-out: pIC50 [C4-2] CAT (converted)", "how_it_was_run": "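C4-2 cells were incubated 1 h at 4 °C with 50 nM AF488-labelled peptide PSM-0183 plus increasing test compound concentrations, then washed twice in ice-cold buffer. Median fluorescence in the AF488 channel was read by flow cytometry. IC50/pIC50 was derived by 4PL fitting of MFI versus concentration.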"}}, "note": "Numbered stars: 1 amine (or outer) side, 2 acyl side, 3 side chain; on linkers, the order of the positions; unused ones are H or OH. Bridge positions count the residues as written; N and C are the ends. Square brackets hold non-standard residues; d marks the D form. Peptide text beside a SMILES is read from it. * marks the point of attachment. X14 = NC(=O)[C@H](CCCCNC(=O)CCCC[C@@H]1SC[C@@H]2NC(=O)N[C@@H]21)NC(=O)CCC(=O)NCCCOCCOCCOCCCNC(=O)CCC(=O)NCCCOCCOCCOCCCN*; X3 = O=C(O)CN1CCN(CC(=O)O)CCN(CC(=O)NCCCOCCOCCOCCCN*)CCN(CC(=O)O)CC1; DOTA = O=C(O)CN1CCN(CC(=O)O)CCN(CC(=O)*)CCN(CC(=O)O)CC1; Arg(NO2) = N=C(NCCC[C@H](N)C(=O)O)N[N+](=O)[O-]; Phe(4-Cl) = N[C@@H](Cc1ccc(Cl)cc1)C(=O)O; Arg(Me) = CNC(=N)NCCC[C@H](N)C(=O)O; 2Pal = N[C@@H](Cc1ccccn1)C(=O)O; 3Pal = N[C@@H](Cc1cccnc1)C(=O)O; X1 = O=C(CC1CCN([*:1])CC1)[*:2]; Cit = NC(=O)NCCC[C@H](N)C(=O)O; Lys(Me) = CNCCCC[C@H](N)C(=O)O; d(αMeS) = C[C@@](N)(CO)C(=O)O; Suc = O=C(CCC(=O)[*:2])[*:1]; Tle = CC(C)(C)[C@H](N)C(=O)O; Pyridin(2-yl) = c1ccc(*)nc1; Orn = NCCC[C@H](N)C(=O)O; Aib = CC(C)(N)C(=O)O; CO = O=C([*:1])[*:2]; NHBu = CCCCN*"}
{"smiles": "C[C@@H](O)[C@H](NC(=O)CC1CCN(C(=O)CN2CCN(CC(=O)O)CCN(CC(=O)O)CCN(CC(=O)O)CC2)CC1)C(=O)NC(C)(C)C(=O)N[C@@H](Cc1ccc(Cl)cc1)C(=O)N[C@H]1CSSC[C@@H](C(=O)N[C@H](C(=O)N[C@H](C(=O)NCCCOCCOCCOCCCNC(=O)CCC(=O)NCCCOCCOCCOCCCNC(=O)CCC(=O)N[C@@H](CCCCNC(=O)CCCC[C@@H]2SC[C@@H]3NC(=O)N[C@@H]32)C(N)=O)[C@@H](C)O)C(C)(C)C)NC(=O)[C@H](CC(N)=O)NC(=O)C(C)(C)NC(=O)[C@H](CCCNC(=N)N)NC(=O)[C@H](CCCCN)NC1=O", "note": "[PSM-0250, DOTA-Cmp-Thr-Aib-Pcf-[Cys-Lys-Arg-Aib-Asn-Cys]-Tle-Thr-Ttds-Ttds-Lys(Bio)-NH2] ({DOTA}-[X1]T[Aib][Phe(4-Cl)]CKR[Aib]NC[Tle]T-X14; disulfide 5-10)", "values": [{"measurement": "Kd", "setting": "[1]", "result": "< 12.6", "unit": "nM"}, {"measurement": "IC50", "setting": "[2]", "result": "200 to 1260", "unit": "nM"}]}
{"smiles": "CC(=O)N[C@H](C(=O)NC(C)(C)C(=O)N[C@@H](Cc1ccccc1)C(=O)N[C@H]1CSSC[C@@H](C(=O)N[C@H](C(=O)N[C@H](C(=O)N2CCC(CC(=O)N[C@H](CCCCNC(=O)CN3CCN(CC(=O)O)CCN(CC(=O)O)CCN(CC(=O)O)CC3)C(N)=O)CC2)[C@@H](C)O)C(C)(C)C)NC(=O)[C@H](CC(N)=O)NC(=O)C(C)(C)NC(=O)[C@H](CCCNC(N)=O)NC(=O)[C@H](CCCCN)NC1=O)[C@@H](C)O", "note": "[PSM-0252, Ac-Thr-Aib-Phe-[Cys-Lys-Cit-Aib-Asn-Cys]-Tle-Thr-Cmp-lys(DOTA)-NH2] (Ac-T[Aib]FCK[Cit][Aib]NC[Tle]T[X1][dK](DOTA)-NH2; disulfide 4-9)", "values": [{"measurement": "Kd", "setting": "[1]", "result": "> 501", "unit": "nM"}, {"measurement": "IC50", "setting": "[2]", "result": "200 to 1260", "unit": "nM"}]}
{"smiles": "CC(=O)N[C@H](C(=O)NC(C)(C)C(=O)N[C@@H](Cc1ccccc1)C(=O)N[C@H]1CSSC[C@@H](C(=O)N[C@H](C(=O)N[C@H](C(=O)N[C@@H](CC(=O)O)C(N)=O)[C@@H](C)O)C(C)(C)C)NC(=O)[C@H](CC(N)=O)NC(=O)C(C)(C)NC(=O)[C@H](CCC(=O)O)NC(=O)[C@H](CCCCN)NC1=O)[C@@H](C)O", "note": "[PSM-0253, Ac-Thr-Aib-Phe-[Cys-Lys-Glu-Aib-Asn-Cys]-Tle-Thr-Asp-NH2] (Ac-T[Aib]FCKE[Aib]NC[Tle]TD-NH2; disulfide 4-9)", "values": [{"measurement": "Kd", "setting": "[1]", "result": "126 to 501", "unit": "nM"}, {"measurement": "IC50", "setting": "[2]", "result": "200 to 1260", "unit": "nM"}]}
{"smiles": "CNCCCC[C@@H]1NC(=O)[C@@H](NC(=O)[C@H](Cc2ccc(Cl)cc2)NC(=O)C(C)(C)NC(=O)[C@@H](NC(=O)CC2CCN(C(=O)CN3CCN(CC(=O)O)CCN(CC(=O)O)CCN(CC(=O)O)CC3)CC2)[C@@H](C)O)CSSC[C@@H](C(=O)N[C@H](C(=O)N[C@H](C(N)=O)[C@@H](C)O)C(C)(C)C)NC(=O)[C@H](CC(N)=O)NC(=O)C(C)(C)NC(=O)[C@H](CCCNC(=N)N[N+](=O)[O-])NC1=O", "note": "[PSM-0254, DOTA-Cmp-Thr-Aib-Pcf-[Cys-Lys(Me)-Eew-Aib-Asn-Cys]-Tle-Thr-NH2] ({DOTA}-[X1]T[Aib][Phe(4-Cl)]C[Lys(Me)][Arg(NO2)][Aib]NC[Tle]T-NH2; disulfide 5-10)", "values": [{"measurement": "Kd", "setting": "[1]", "result": "< 12.6", "unit": "nM"}, {"measurement": "IC50", "setting": "[2]", "result": "< 200", "unit": "nM"}]}
{"smiles": "C[C@@H](O)[C@H](NC(=O)[C@@H](NC(=O)[C@@H]1CSSC[C@H](NC(=O)[C@H](Cc2cccnc2)NC(=O)C(C)(C)NC(=O)[C@@H](NC(=O)CC2CCN(C(=O)CN3CCN(CC(=O)O)CCN(CC(=O)O)CCN(CC(=O)O)CC3)CC2)[C@@H](C)O)C(=O)N[C@@H](CCCCN)C(=O)N[C@@H](CCCNC(N)=O)C(=O)NC(C)(C)C(=O)N[C@@H](CC(N)=O)C(=O)N1)C(C)(C)C)C(N)=O", "note": "[PSM-0255, DOTA-Cmp-Thr-Aib-Mpa-[Cys-Lys-Cit-Aib-Asn-Cys]-Tle-Thr-NH2] ({DOTA}-[X1]T[Aib][3Pal]CK[Cit][Aib]NC[Tle]T-NH2; disulfide 5-10)", "values": [{"measurement": "Kd", "setting": "[1]", "result": "> 501", "unit": "nM"}, {"measurement": "IC50", "setting": "[2]", "result": "1260 to 3160", "unit": "nM"}]}
{"smiles": "C[C@@H](O)[C@H](NC(=O)[C@@H](NC(=O)[C@@H]1CSSC[C@H](NC(=O)[C@H](Cc2ccc(Cl)cc2)NC(=O)[C@@](C)(CO)NC(=O)[C@@H](NC(=O)CC2CCN(C(=O)CN3CCN(CC(=O)O)CCN(CC(=O)O)CCN(CC(=O)O)CC3)CC2)[C@@H](C)O)C(=O)N[C@@H](CCCCN)C(=O)N[C@@H](CCCNC(=N)N)C(=O)NC(C)(C)C(=O)N[C@@H](CC(N)=O)C(=O)N1)C(C)(C)C)C(N)=O", "note": "[PSM-0256, DOTA-Cmp-Thr-ams-Pcf-[Cys-Lys-Arg-Aib-Asn-Cys]-Tle-Thr-NH2] ({DOTA}-[X1]T[d(αMeS)][Phe(4-Cl)]CKR[Aib]NC[Tle]T-NH2; disulfide 5-10)", "values": [{"measurement": "Kd", "setting": "[1]", "result": "< 12.6", "unit": "nM"}, {"measurement": "IC50", "setting": "[2]", "result": "< 200", "unit": "nM"}]}
{"smiles": "CNCCCC[C@@H]1NC(=O)[C@@H](NC(=O)[C@H](Cc2ccccn2)NC(=O)C(C)(C)NC(=O)[C@@H](NC(=O)CC2CCN(C(=O)CN3CCN(CC(=O)O)CCN(CC(=O)O)CCN(CC(=O)O)CC3)CC2)[C@@H](C)O)CSSC[C@@H](C(=O)N[C@H](C(=O)N[C@H](C(N)=O)[C@@H](C)O)C(C)(C)C)NC(=O)[C@H](CC(N)=O)NC(=O)C(C)(C)NC(=O)[C@H](CCCNC(=N)NC)NC1=O", "note": "[PSM-0257, DOTA-Cmp-Thr-Aib-Opa-[Cys-Lys(Me)-Arg(Me)-Aib-Asn-Cys]-Tle-Thr-NH2] ({DOTA}-[X1]T[Aib][2Pal]C[Lys(Me)][Arg(Me)][Aib]NC[Tle]T-NH2; disulfide 5-10)", "values": [{"measurement": "Kd", "setting": "[1]", "result": "12.6 to 126", "unit": "nM"}, {"measurement": "IC50", "setting": "[2]", "result": "200 to 1260", "unit": "nM"}]}
{"smiles": "CCCCNC(=O)N[C@H](C(=O)NC(C)(C)C(=O)N[C@@H](Cc1ccccc1)C(=O)N[C@H]1CSSC[C@@H](C(=O)N[C@H](C(=O)N[C@H](C(=O)N2CCC(CC(=O)N[C@H](CCCCNC(=O)CN3CCN(CC(=O)O)CCN(CC(=O)O)CCN(CC(=O)O)CC3)C(N)=O)CC2)[C@@H](C)O)C(C)(C)C)NC(=O)[C@H](CC(N)=O)NC(=O)C(C)(C)NC(=O)[C@H](CCCNc2ccccn2)NC(=O)[C@H](CCCCN)NC1=O)[C@@H](C)O", "note": "[PSM-0258, nBuCAyl-Thr-Aib-Phe-[Cys-Lys-Opy-Aib-Asn-Cys]-Tle-Thr-Cmp-lys(DOTA)-NH] ({NHBu-CO}-T[Aib]FCK[Orn](Pyridin(2-yl))[Aib]NC[Tle]T[X1][dK](DOTA)-NH2; disulfide 4-9)", "values": [{"measurement": "Kd", "setting": "[1]", "result": "126 to 501", "unit": "nM"}, {"measurement": "IC50", "setting": "[2]", "result": "200 to 1260", "unit": "nM"}]}
{"smiles": "C[C@@H](O)[C@H](NC(=O)[C@@H](NC(=O)[C@@H]1CSSC[C@H](NC(=O)[C@H](Cc2ccccc2)NC(=O)C(C)(C)NC(=O)[C@@H](NC(=O)CCC(=O)NCCCOCCOCCOCCCNC(=O)CN2CCN(CC(=O)O)CCN(CC(=O)O)CCN(CC(=O)O)CC2)[C@@H](C)O)C(=O)N[C@@H](CCCCN)C(=O)N[C@@H](CCCNC(=N)N)C(=O)NC(C)(C)C(=O)N[C@@H](CC(N)=O)C(=O)N1)C(C)(C)C)C(N)=O", "note": "[PSM-0259, DOTA-Ttds-Thr-Aib-Phe-[Cys-Lys-Arg-Aib-Asn-Cys]-Tle-Thr-NH2] ({X3-Suc}-T[Aib]FCKR[Aib]NC[Tle]T-NH2; disulfide 4-9)", "values": [{"measurement": "Kd", "setting": "[1]", "result": "< 12.6", "unit": "nM"}, {"measurement": "IC50", "setting": "[2]", "result": "< 200", "unit": "nM"}]}
{"smiles": "C[C@@H](O)[C@H](NC(=O)[C@@H](NC(=O)[C@@H]1CSSC[C@H](NC(=O)[C@H](Cc2ccc(Cl)cc2)NC(=O)C(C)(C)NC(=O)[C@@H](NC(=O)CC2CCN(C(=O)CN3CCN(CC(=O)O)CCN(CC(=O)O)CCN(CC(=O)O)CC3)CC2)[C@@H](C)O)C(=O)N[C@@H](CCCCN)C(=O)N[C@@H](CCCNC(=N)N)C(=O)N[C@H](CCC(=O)O)C(=O)N[C@@H](CC(N)=O)C(=O)N1)C(C)(C)C)C(N)=O", "note": "[PSM-0260, DOTA-Cmp-Thr-Aib-Pcf-[Cys-Lys-Arg-glu-Asn-Cys]-Tle-Thr-NH2] ({DOTA}-[X1]T[Aib][Phe(4-Cl)]CKR[dE]NC[Tle]T-NH2; disulfide 5-10)", "values": [{"measurement": "Kd", "setting": "[1]", "result": "< 12.6", "unit": "nM"}, {"measurement": "IC50", "setting": "[2]", "result": "< 200", "unit": "nM"}]}
